Results on one compound are retold here after patent US20080072337A1, “Braf Expression in Zebrafish and Uses Thereof” (Children's Medical Center Corporation, priority 2004, published 2008).

For this data set, the system named is zebrafish. Put plainly: Examination of DMBA treated zebrafish for melanoma. The settings on record: over 10,000 DMBA treated zebrafish examined; unpublished data of the applicants. The format is in vivo.

Consider `Cc1c2ccccc2c(C)c2c1ccc1ccccc12` [DMBA], for which the “melanoma identified in treated zebrafish” value is recorded as “failed to identify a single melanoma”.
